From patent publication US10125111B2, “Benzofuran compounds for the treatment of hepatitis C” (BRISTOL-MYERS SQUIBB COMPANY, priority 2015, dated 2018)
pEC50: −log10 of the molar value. Read-outs that look alike come from different tables or passages of the source.

Test system: genotype 1b (Con-1) HCV replicon
Assay: HCV Replicon Luciferase Assay
Type: cell-based
Conditions: Hepatitis C virus, 72 h, Huh-7 genotype 1b replicon, Renilla luciferase, 3 days incubation; for pEC50: read-out: EC50 1b (class); for EC50: read-out: EC50 (uM) 1b
Description: The cell lines used to evaluate compounds consist of a human hepatocyte derived cell line (Huh-7) that constitutively expresses a genotype 1b (Con-1) HCV replicon or a genotype 1b (Con-1) HCV replicon with an asparagine replacing the cysteine at amino acid 316, or a genotype 2a (JFH-1) replicon, containing a Renilla luciferase reporter gene. These cells were maintained in Dulbecco's modified Eagle medium (DMEM) containing 10% FBS, 100 U/mL penicillin/streptomycin and 1.0 mg/mL G418.
To evaluate compound efficacy, titrated compounds were transferred to sterile 384-well tissue culture treated plates, and the plates were seeded with HCV replicon cells (50 μL at a density of 2.4×10^3 cells/well) in DMEM containing 4% FBS (final DMSO concentration at 0.5%). After 3 days incubation at 37° C., cells were analyzed for Renilla Luciferase activity using the EnduRen substrate (Promega cat #E6485) according to the manufacturer's directions. Briefly, the EnduRen substrate was diluted in DMEM and then added to the plates to a final concentration of 7.5 μM. The plates were incubated for at least 1 h at 37° C. then read on a Viewlux Imager (PerkinElmer) using a luminescence program. The 50% effective concentration (EC50) was calculated using the four-parameter logistic Formula noted above.
Compound EC50 data is expressed as A: <100 nM; B=100-1000 nM; C>1000 nM).

Row | Compound | pEC50 | EC50
1 | CNC(=O)c1c(-c2ccc(F)cc2)oc2cc(N(CCCF)S(C)(=O)=O)c(-c3cccc(C(=O)NC4(C)CC4)c3)cc12 [Compound 4016] | > 7.00 | 
2 | CNC(=O)c1c(-c2ccc(F)cc2)oc2cc(N(CCCF)S(C)(=O)=O)c(-c3cccc(C(=O)NCC(C)(C)CO)c3)cc12 [Compound 4017] | > 7.00 | 
3 | CNC(=O)c1c(-c2ccc(F)cc2)oc2cc(N(CCCF)S(C)(=O)=O)c(-c3cccc(C(=O)NC(C)(C)CO)c3)cc12 [Compound 4018] | > 7.00 | 
4 | CNC(=O)c1c(-c2ccc(F)cc2)oc2cc(N(CCCF)S(C)(=O)=O)c(-c3cccc(C(=O)NCC(C)(F)F)c3)cc12 [Compound 4019] | > 7.00 | 0.0098 µM
5 | CNC(=O)c1c(-c2ccc(F)cc2)oc2cc(N(CCCF)S(C)(=O)=O)c(-c3cccc(C(=O)NCC(F)F)c3)cc12 [Compound 4020] | > 7.00 | 
6 | CNC(=O)c1c(-c2ccc(F)cc2)oc2cc(N(CCCF)S(C)(=O)=O)c(-c3cccc(C(=O)N[C@@H](C)C(F)(F)F)c3)cc12 [Compound 4021] | > 7.00 | 
7 | CNC(=O)c1c(-c2ccc(F)cc2)oc2cc(N(CCCF)S(C)(=O)=O)c(-c3cccc(C(=O)NC4(C)CCC4)c3)cc12 [Compound 4022] | > 7.00 | 0.0077 µM
8 | CNC(=O)c1c(-c2ccc(F)cc2)oc2cc(N(CCCF)S(C)(=O)=O)c(-c3cccc(C(=O)NC4(C(F)(F)F)CC4)c3)cc12 [Compound 4023] | > 7.00 | 
9 | CNC(=O)c1c(-c2ccc(F)cc2)oc2cc(N(CCCF)S(C)(=O)=O)c(-c3cccc(C(=O)NC(C)(C)C#N)c3)cc12 [Compound 4024] | > 7.00 | 
10 | CNC(=O)c1c(-c2ccc(F)cc2)oc2cc(N(CCCF)S(C)(=O)=O)c(-c3cccc(C(=O)NC(C4CC4)C4CC4)c3)cc12 [Compound 4025] | > 7.00 | 
11 | CNC(=O)c1c(-c2ccc(F)cc2)oc2cc(N(CCCF)S(C)(=O)=O)c(-c3cccc(C(=O)NC(C)(C)C(C)(C)C)c3)cc12 [Compound 4026] | > 7.00 | 
12 | CNC(=O)c1c(-c2ccc(F)cc2)oc2cc(N(CCCF)S(C)(=O)=O)c(-c3cccc(C(=O)NC(C)(C)CCO)c3)cc12 [Compound 4027] | > 7.00 | 
13 | C#CC(CC)(CC)NC(=O)c1cccc(-c2cc3c(C(=O)NC)c(-c4ccc(F)cc4)oc3cc2N(CCCF)S(C)(=O)=O)c1 [Compound 4028] | > 7.00 | 0.0056 µM
14 | C#CC(C)(CC)NC(=O)c1cccc(-c2cc3c(C(=O)NC)c(-c4ccc(F)cc4)oc3cc2N(CCCF)S(C)(=O)=O)c1 (centres unmarked) [Compound 4029] | > 7.00 | 0.0059 µM
15 | CNC(=O)c1c(-c2ccc(F)cc2)oc2cc(N(CCCF)S(C)(=O)=O)c(-c3cccc(C(=O)N[C@H](C)C(F)(F)F)c3)cc12 [Compound 4030] | > 7.00 | 
16 | CNC(=O)c1c(-c2ccc(F)cc2)oc2cc(NCCCF)c(-c3cccc(C(=O)NC(C)(C)C#N)c3)cc12 [Compound 5003] | > 7.00 | 
17 | CNC(=O)c1c(-c2ccc(F)cc2)oc2cc(NCCCF)c(-c3cccc(C(=O)NC(C)(C#N)C4CC4)c3)cc12 (centres unmarked) [Compound 5004] | > 7.00 | 
18 | CNC(=O)c1c(-c2ccc(F)cc2)oc2cc(NCCCF)c(-c3cccc(C(=O)NC(C)(C)C(F)(F)F)c3)cc12 [Compound 5005] | > 7.00 | 
19 | CNC(=O)c1c(-c2ccc(F)cc2)oc2cc(NCCCF)c(-c3cccc(C(=O)NC(CF)(CF)CF)c3)cc12 [Compound 5006] | > 7.00 | 0.0094 µM
20 | CNC(=O)c1c(-c2ccc(F)cc2)oc2cc(N(C(F)F)S(C)(=O)=O)c(-c3cccc(C(=O)OC)c3)cc12 [Compound 6001] | > 7.00 | 
21 | CNC(=O)c1c(-c2ccc(F)cc2)oc2cc(N(C(F)F)S(C)(=O)=O)c(-c3cccc(C(=O)O)c3)cc12 [Compound 6002] | < 6.00 | > 10 µM
22 | CNC(=O)c1c(-c2ccc(F)cc2)oc2cc(N(C(F)F)S(C)(=O)=O)c(-c3cccc(C(=O)NC(C)(C)C(F)(F)F)c3)cc12 [Compound 6003] | > 7.00 | 0.0095 µM
23 | CNC(=O)c1c(-c2ccc(F)cc2)oc2cc(N(C(F)F)S(C)(=O)=O)c(-c3cccc(C(=O)NC(C)(C)C#N)c3)cc12 [Compound 6004] | > 7.00 | 
24 | CNC(=O)c1c(-c2ccc(F)cc2)oc2cc(N(C(F)F)S(C)(=O)=O)c(-c3cccc(C(=O)NC(CF)(CF)CF)c3)cc12 [Compound 6005] | > 7.00 | 
25 | [2H]C([2H])([2H])C(NC(=O)c1cccc(-c2cc3c(C(=O)NC)c(-c4ccc(F)cc4)oc3cc2N(C(F)F)S(C)(=O)=O)c1)(C([2H])([2H])[2H])C([2H])([2H])[2H] [Compound 6006] | > 7.00 | 
